The term IC50 denotes the concentration that inhibits the measured activity by half. The term AC50 denotes the concentration giving half of the maximal activity seen. The term EC50 denotes the concentration needed to bring the measured effect to its halfway point.

IC50, AC50 and EC50 data for 14 compounds are collected here from ChEMBL document CHEMBL1201862, “PubChem BioAssay data set” (2004).

One data set concerns HEK293. Briefly: cells. As to conditions: Homo sapiens.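 Also: cells exposed to compound for 14 hours overnight before viability readout.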
The target in data set [1] is Nucleotide-binding oligomerization domain-containing protein 2 (Homo sapiens, UniProt Q9HC29). Description: PubChem AID 2334. The class given is functional.
Data set [2] has as its target T1, Nucleotide-binding oligomerization domain-containing protein 1 (Homo sapiens, UniProt Q9Y239).
T1 sequence (Q9Y239 whole entry): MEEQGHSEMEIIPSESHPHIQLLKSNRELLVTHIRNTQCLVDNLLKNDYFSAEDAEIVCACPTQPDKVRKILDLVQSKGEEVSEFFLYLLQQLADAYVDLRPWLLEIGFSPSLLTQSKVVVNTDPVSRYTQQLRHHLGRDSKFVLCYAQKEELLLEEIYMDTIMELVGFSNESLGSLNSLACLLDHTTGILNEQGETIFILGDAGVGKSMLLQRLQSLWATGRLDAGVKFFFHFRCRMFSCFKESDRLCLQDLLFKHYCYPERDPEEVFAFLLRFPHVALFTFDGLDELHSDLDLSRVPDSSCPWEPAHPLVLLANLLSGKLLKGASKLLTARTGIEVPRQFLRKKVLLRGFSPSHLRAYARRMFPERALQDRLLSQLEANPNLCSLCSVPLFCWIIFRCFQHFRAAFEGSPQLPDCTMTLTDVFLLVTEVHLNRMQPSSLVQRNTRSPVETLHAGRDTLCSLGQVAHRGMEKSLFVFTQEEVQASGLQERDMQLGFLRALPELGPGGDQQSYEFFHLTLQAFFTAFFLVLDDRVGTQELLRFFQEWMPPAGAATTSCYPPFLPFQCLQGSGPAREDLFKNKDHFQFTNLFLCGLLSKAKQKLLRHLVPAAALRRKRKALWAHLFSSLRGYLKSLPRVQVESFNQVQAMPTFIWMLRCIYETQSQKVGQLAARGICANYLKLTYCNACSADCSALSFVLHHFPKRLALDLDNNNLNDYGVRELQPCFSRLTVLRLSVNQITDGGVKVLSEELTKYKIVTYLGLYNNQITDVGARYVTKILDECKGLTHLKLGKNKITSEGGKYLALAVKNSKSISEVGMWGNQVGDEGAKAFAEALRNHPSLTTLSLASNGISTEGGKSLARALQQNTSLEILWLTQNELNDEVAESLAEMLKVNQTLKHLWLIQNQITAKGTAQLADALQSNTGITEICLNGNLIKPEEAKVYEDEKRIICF
Briefly: NOD1 signaling inhibitors, SAR follow-up, revised (AID 2333). Type of data set: functional.

The next data set concerns the target Tumor necrosis factor (Homo sapiens, UniProt P01375). Briefly: TNFa-triggered NF-kB activation inhibitors, SAR follow-up, cell-based, revised (AID 2337). Type of data set: functional.
In data set [3] the target is T2, Cytochrome P450 2C9 (Homo sapiens, UniProt P11712).
Another data set has as its target Cytochrome P450 2D6 (Homo sapiens, UniProt P10635).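 Also: CYP2D6 member of a cytochrome P450 panel assay.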
In the next data set the target is Cytochrome P450 3A4 (Homo sapiens, UniProt P08684).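 Also: CYP3A4 tested as one member of a cytochrome P450 panel screen.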
The target in another data set is Cytochrome P450 2C19 (Homo sapiens, UniProt P33261). Briefly: Cytochrome panel assay with activity outcomes. Panel member name: p450-cyp2c19 Compounds with AC50 equal or less than 10 uM are considered active. The class given is functional. To be noted: read-out: AC50.
The target of data set [4] is T3, DNA repair and recombination protein RAD54-like (Homo sapiens, UniProt Q92698).
T3 sequence (Q92698 whole entry): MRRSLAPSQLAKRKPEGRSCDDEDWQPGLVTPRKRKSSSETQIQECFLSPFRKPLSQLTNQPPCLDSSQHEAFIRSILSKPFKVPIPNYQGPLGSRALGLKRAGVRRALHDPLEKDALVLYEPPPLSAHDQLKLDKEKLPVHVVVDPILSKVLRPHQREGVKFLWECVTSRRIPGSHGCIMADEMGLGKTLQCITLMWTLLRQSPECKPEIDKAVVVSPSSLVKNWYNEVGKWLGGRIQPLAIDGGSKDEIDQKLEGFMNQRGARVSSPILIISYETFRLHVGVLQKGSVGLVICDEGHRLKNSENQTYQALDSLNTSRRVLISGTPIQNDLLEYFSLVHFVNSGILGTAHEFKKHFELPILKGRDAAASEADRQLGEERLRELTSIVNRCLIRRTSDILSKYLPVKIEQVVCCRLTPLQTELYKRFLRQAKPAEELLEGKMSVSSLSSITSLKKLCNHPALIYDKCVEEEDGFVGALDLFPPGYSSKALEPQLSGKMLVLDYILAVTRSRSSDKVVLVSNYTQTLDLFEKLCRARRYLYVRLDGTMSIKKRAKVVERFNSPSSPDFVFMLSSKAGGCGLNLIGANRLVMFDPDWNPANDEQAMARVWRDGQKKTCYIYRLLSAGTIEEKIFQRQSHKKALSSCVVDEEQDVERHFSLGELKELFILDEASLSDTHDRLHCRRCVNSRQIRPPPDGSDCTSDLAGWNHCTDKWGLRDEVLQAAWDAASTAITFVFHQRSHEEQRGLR
Description: inhibitors of human RAD54 branch migration, confirmation, biochemical, fluorescence, cherry-picked samples, dose series (AID 651657). Type of data set: functional.

Data set [5] has as its system Escherichia coli. Briefly: microbe, parasite or virus in culture.
The target of data set [6] is 5-hydroxytryptamine receptor 5A (Homo sapiens, UniProt P47898). Description: Counterscreen for agonists of OPRM1-OPRD1 heterodimerization: luminescence-based cell-based high throughput dose response assay to identify agonists of 5-hydroxytryptamine (serotonin) 5A receptor (HTR5A). [Related pubchem assays (depositor defined):AID504326, AID504355, AID504692, AID504904, AID504905]. The class given is functional. (In general: Counterscreens check selectivity or assay interference.)

The target of a further data set is Mu-type opioid receptor (Homo sapiens, UniProt P35372). Briefly: Counterscreen for agonists of heterodimerization of the mu 1 (OPRM1) and delta 1 (OPRD1) opioid receptors: Luminescence-based cell-based high throughput dose response assay to identify agonists of OPRM1 homodimerization. Type of data set: functional.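 Also: U2OS cells expressing OPRM1 and beta-arrestin as split beta-galactosidase partners.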
Data set [7] has as its target Delta-type opioid receptor (Homo sapiens, UniProt P41143). Briefly: Counterscreen for agonists of heterodimerization of the mu 1 (OPRM1) and delta 1 (OPRD1) opioid receptors: Luminescence-based cell-based high throughput dose response assay to identify agonists of OPRD1 homodimerization. [Related pubchem assays (depositor defined):AID504326, AID504355, AID504692, AID504904, AID504905]. Type of data set: functional.

The target in data set [8] is T4, Carboxy-terminal domain RNA polymerase II polypeptide A small phosphatase 1 (Homo sapiens, UniProt Q9GZU7).
T4 sequence (Q9GZU7 whole entry): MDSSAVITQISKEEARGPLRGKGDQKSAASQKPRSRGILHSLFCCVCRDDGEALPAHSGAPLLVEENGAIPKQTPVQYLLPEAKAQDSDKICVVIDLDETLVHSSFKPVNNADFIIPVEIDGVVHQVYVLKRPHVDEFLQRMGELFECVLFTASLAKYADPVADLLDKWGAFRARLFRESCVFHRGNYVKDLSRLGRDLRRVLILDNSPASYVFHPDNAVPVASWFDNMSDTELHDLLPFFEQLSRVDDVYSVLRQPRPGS
Briefly: inhibitors of CTDSP1, concentration-response testing, biochemical assay, absorbance-based, actives from ultra-high-throughput screening (AID 540297). The class given is functional.

The next data set concerns H4. Briefly: Luminescence Cell-Based Dose Response HTS to Identify Activators of 5'UTR Stem-Loop Driven Prion Protein mRNA Translation in H4 Neuroglioblastoma Cells. [Related pubchem assays: 1829 (Project Summary), 1814 (Primary HTS)]. Type of data set: functional. To be noted: Homo sapiens.
Data set [9] in a line: Luminescence Cell-Based Dose Response HTS to Identify Activators of Luciferase Translation or Activity in H4 […] Cells. [Related pubchem assays: 1829 (Project Summary), 1814 (Primary HTS)]. The class given is functional.
Data set [10] is described as follows: Luminescence Cell-Based Dose Confirmation HTS to Identify Activators of 5'UTR Stem-Loop Driven Alpha-Synuclein mRNA Translation in H4 Neuroglioblastoma Cells. [Related pubchem assays: 1829 (Project Summary), 1814 (Primary HTS)]. The class given is functional.
Another data set deals with HeLa. Briefly: HeLa cell cytotoxicity, dose response, cytotoxicity control for MITF activator project, CellTiter-Glo luminescence, cherry-pick samples (AID 540259). Type of data set: functional, cell-based. To be noted: Homo sapiens. (Cellular ATP, detected with luciferase, serves as a proxy for viable cell number.)
A further data set concerns INS1. Description: beta cell apoptosis inhibitors, cytokine rescue, dose response, luminescence, retest (AID 449756).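 Also: cell death triggered by IL-1 beta plus TNF-alpha plus IFN-gamma mixture; protective hits raise ATP signal compared with cytokine alone wells.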 To be noted: Rattus norvegicus. Type of data set: functional, cell-based.
The next data set concerns CHO. Briefly: cytotoxicity in TLR9-MyD88 CHO cells, dose response, cytotoxicity control for TLR9-MyD88 binding inhibitor project, cell-based, luminescence (AID 588339).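 Also: CHO cells stably coexpressing TLR9 and MyD88 fusions from primary screen; compound exposure lasted 48 hours before viability readout.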 The class given is functional, hamster. To be noted: Cricetulus griseus.
For a further data set, the target named is Beta Lactamase (Pseudomonas aeruginosa, UniProt Q932Y6). Description: beta-lactamase reporter inhibitor potency, dose response, artefact control for TLR9-MyD88 binding inhibitor project, BLA reporter cells, FRET fluorescence (AID 588341).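 Also: cell based assay in CHO-K1 cells stably expressing beta-lactamase.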 Type of data set: cell-based.
The target in the next data set is T5, Cytochrome P450 1A2 (Homo sapiens, UniProt P05177).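 Also: PubChem cytochrome P450 panel assay, CYP1A2 panel member.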
T5 sequence (P05177 whole entry): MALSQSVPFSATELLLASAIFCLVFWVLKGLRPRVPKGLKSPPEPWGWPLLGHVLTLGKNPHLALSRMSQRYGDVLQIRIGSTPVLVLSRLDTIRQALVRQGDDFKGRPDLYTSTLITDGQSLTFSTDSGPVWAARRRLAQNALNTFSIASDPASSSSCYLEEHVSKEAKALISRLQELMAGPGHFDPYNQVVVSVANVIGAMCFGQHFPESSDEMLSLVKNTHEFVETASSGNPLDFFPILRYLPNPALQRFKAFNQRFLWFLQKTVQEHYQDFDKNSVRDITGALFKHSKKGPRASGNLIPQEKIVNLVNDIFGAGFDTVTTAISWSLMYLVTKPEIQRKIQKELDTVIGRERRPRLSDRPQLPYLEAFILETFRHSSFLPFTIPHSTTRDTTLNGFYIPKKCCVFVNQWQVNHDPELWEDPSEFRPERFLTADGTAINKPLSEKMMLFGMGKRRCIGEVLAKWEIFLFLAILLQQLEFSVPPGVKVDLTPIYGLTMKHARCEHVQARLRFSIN

The target in data set [11] is T2, Cytochrome P450 2C9. This is another data set of the same source.
Data set [12] has as its system Escherichia coli. Description: microbe, parasite or virus in culture. The source holds these as a separate data set.

Calls of active or inactive are those of the source. Where only a bound is given, the exact number is not on record here.

Nucleotide-binding oligomerization domain-containing protein 2, sequence (Q9HC29 whole entry, the tested form may be a part): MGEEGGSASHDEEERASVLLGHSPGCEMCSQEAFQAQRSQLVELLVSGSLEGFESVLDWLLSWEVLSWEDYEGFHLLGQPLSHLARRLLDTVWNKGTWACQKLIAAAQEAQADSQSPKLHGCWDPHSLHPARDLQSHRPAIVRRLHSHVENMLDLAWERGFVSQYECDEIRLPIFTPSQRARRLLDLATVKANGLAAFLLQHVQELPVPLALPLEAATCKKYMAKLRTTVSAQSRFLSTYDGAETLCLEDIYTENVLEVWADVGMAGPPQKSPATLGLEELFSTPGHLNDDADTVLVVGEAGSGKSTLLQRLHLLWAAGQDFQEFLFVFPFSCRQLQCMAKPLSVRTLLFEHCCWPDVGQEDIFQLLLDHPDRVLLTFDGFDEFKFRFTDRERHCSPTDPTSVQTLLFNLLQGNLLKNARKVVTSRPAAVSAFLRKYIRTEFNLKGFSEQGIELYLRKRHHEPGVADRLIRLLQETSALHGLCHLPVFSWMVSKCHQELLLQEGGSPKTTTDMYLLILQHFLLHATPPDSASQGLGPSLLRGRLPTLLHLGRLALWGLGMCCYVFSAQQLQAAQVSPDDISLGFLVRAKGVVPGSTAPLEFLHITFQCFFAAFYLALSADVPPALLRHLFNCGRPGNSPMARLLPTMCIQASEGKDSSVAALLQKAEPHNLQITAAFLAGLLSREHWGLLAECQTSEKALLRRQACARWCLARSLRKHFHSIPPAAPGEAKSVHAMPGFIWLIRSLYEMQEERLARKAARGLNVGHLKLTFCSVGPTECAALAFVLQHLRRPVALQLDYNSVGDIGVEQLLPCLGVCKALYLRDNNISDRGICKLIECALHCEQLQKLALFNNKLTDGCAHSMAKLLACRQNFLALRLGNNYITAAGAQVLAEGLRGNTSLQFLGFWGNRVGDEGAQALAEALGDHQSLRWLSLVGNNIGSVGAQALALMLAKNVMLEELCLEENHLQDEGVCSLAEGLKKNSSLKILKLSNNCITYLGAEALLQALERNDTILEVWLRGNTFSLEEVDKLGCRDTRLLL
Tumor necrosis factor, sequence (P01375 whole entry): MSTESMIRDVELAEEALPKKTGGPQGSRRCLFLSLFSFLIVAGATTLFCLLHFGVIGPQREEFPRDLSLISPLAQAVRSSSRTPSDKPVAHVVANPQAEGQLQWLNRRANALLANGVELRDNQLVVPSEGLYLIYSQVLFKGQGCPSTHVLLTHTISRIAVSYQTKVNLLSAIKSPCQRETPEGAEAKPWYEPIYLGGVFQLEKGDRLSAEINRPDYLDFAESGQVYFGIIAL
T2 sequence (P11712 whole entry): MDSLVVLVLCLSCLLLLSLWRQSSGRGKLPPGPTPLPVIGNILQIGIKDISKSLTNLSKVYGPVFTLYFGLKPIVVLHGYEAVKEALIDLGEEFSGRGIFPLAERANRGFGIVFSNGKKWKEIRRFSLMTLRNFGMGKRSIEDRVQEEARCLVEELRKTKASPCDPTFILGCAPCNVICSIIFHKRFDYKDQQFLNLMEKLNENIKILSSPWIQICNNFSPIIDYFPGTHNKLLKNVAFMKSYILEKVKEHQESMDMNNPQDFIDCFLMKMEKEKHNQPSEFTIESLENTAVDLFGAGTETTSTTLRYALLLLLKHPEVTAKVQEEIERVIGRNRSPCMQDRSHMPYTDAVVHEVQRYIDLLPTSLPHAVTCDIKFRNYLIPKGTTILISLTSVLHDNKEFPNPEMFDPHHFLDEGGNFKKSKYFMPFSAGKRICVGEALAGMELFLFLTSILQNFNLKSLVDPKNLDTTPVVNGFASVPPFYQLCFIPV
Cytochrome P450 2D6, sequence (P10635 whole entry): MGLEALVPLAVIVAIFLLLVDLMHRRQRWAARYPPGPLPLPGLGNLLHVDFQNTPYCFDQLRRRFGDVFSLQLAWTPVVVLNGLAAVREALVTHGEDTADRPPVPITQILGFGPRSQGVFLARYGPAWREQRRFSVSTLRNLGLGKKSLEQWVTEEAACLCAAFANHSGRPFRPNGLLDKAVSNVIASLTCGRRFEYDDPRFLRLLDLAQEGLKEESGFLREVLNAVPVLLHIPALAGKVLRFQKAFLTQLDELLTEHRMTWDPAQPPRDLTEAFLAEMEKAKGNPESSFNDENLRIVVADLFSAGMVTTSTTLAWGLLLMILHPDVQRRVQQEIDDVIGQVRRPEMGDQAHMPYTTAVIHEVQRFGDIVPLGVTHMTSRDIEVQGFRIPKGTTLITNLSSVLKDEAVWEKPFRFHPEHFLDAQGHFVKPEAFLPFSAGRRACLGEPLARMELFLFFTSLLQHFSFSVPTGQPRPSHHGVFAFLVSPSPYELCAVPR
Cytochrome P450 2C19, sequence (P33261 whole entry): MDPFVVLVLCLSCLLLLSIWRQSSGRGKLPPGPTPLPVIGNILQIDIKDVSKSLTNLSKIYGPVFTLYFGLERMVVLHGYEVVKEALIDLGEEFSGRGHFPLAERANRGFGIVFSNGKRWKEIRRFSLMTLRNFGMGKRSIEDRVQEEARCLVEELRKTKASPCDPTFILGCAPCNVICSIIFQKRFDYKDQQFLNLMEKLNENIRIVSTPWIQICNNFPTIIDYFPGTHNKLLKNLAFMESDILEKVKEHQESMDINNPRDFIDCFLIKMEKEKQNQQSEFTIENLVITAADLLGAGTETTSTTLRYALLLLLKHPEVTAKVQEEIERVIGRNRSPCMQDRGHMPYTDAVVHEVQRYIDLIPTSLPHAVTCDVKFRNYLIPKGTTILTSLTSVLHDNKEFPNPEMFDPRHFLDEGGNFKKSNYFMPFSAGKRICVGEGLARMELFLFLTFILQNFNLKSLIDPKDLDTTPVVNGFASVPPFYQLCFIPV
Cytochrome P450 3A4, sequence (P08684 whole entry): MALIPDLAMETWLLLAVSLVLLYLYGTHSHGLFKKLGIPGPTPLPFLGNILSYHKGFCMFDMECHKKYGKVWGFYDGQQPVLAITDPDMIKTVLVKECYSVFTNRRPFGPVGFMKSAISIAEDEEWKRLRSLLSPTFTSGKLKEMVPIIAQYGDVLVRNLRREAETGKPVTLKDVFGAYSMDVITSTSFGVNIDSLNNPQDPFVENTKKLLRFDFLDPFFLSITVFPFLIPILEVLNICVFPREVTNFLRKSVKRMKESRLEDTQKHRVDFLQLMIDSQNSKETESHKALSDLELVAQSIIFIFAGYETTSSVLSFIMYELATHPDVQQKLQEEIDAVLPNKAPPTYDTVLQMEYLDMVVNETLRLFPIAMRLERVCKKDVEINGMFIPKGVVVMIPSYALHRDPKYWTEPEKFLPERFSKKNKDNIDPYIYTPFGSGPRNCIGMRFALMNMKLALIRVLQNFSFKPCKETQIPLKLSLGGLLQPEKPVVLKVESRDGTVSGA
Beta Lactamase, sequence (Q932Y6 whole entry): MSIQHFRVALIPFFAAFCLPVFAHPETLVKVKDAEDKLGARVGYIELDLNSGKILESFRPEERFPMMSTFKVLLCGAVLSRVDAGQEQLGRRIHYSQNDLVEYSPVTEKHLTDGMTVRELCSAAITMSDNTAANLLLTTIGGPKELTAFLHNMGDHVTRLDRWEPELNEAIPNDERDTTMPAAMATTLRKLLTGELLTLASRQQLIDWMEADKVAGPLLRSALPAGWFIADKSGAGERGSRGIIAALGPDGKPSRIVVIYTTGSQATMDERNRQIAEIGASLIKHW
Mu-type opioid receptor, sequence (P35372 whole entry): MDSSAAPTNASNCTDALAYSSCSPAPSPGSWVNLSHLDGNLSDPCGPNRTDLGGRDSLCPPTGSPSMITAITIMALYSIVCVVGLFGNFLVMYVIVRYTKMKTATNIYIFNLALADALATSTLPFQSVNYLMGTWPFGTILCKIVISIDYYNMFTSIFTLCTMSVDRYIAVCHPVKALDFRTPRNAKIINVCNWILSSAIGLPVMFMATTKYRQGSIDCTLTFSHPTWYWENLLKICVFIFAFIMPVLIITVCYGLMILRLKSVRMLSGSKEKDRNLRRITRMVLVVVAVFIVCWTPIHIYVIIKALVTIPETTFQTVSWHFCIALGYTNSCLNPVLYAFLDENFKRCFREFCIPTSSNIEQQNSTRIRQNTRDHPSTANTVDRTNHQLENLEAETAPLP
Delta-type opioid receptor, sequence (P41143 whole entry): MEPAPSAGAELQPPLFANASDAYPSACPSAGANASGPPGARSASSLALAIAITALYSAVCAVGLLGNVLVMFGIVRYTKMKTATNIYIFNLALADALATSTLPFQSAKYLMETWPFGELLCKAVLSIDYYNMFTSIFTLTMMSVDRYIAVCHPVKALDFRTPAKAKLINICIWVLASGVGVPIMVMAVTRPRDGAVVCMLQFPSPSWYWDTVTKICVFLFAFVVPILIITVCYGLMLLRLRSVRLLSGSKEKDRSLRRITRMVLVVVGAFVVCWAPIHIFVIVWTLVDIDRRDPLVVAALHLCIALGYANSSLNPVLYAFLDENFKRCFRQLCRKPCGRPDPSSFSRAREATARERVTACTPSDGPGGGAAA
5-hydroxytryptamine receptor 5A, sequence (P47898 whole entry): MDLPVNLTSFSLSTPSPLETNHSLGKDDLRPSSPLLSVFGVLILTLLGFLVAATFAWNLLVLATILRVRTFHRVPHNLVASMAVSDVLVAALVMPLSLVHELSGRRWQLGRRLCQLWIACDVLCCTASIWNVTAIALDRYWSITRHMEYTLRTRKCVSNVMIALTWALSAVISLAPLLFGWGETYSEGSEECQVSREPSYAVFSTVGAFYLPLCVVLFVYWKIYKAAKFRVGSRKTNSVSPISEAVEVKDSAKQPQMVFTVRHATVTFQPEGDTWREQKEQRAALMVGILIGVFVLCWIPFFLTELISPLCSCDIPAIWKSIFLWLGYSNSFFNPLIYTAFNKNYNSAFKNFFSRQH

For the compound `CC(/C=C/c1ccccc1)=NNC(=O)c1cccc(Br)c1`, the IC50 (in the data set on HEK293; in data set [1]; in [2]; at Tumor necrosis factor) was > 20 µM (inactive) throughout.
As to `CCN1CCc2c(sc(NC(=O)c3ccc(S(=O)(=O)N4CCOCC4)cc3)c2C(=O)OC)C1.Cl`, the AC50 on Cytochrome P450 2C9 [3] was 5.01 µM (inconclusive); at Cytochrome P450 2D6 it was “inconclusive”; at Cytochrome P450 3A4 it was “inconclusive”; on Cytochrome P450 2C19 it was 31.6 µM (inconclusive); in data set [4], 12.8 µM (active).
With `O=C(COc1ccc2c3c(c(=O)oc2c1)CCCC3)NCc1ccncc1`, the AC50 in the data set with Escherichia coli [5] was 38.2 µM (active).
Regarding `Cc1cc(Cl)ccc1OCC(=O)N[C@@H](Cc1ccccc1)c1nc2ccccc2[nH]1`, the EC50 (in data set [6]; at Mu-type opioid receptor; in data set [7]) was > 92.5 µM (inactive) each time. Besides, the IC50 in data set [8] was 21.5 µM (active).
In the case of `Cc1ccc(-n2nnc(-c3ccnc4ccccc34)n2)cc1`, the results for the EC50 (in the data set on H4; in data set [9]; in data set [10]) were 14.5 µM (active), 745 nM (active) and 371 nM (active), respectively. Further, the AC50 in the data set with HeLa is 45.4 µM (active).
`CC(C)(/N=N\C(C)(C)C(=N)N)C(=N)N.Cl`: at Cytochrome P450 2D6, the AC50 entry was “inconclusive”.
For `CC(C)CNC(=O)COC(=O)c1c2c(nc3ccccc13)/C(=C/c1cccs1)CC2`, the AC50 in the data set with INS1 was 43.8 µM (active). Also, the IC50 in the data set on CHO was > 49.7 µM (inactive); on Beta Lactamase, 3.52 µM (active).
On to `c1ccc2c(-c3csc(-c4ccncc4)n3)c[nH]c2c1`, for which the AC50 with HeLa is 40.5 µM (active).
Take `CC(=O)Nc1nc2ccccc2n1Cc1ccccc1`: at Cytochrome P450 2C9 [3], the AC50 is 35.5 µM (inconclusive). For the same compound, the IC50 (in the data set with HEK293; in [1]; in data set [2]; at Tumor necrosis factor) was > 20 µM (inactive) each time.
For `COc1ccccc1-n1cnc2c(c1=O)c1nc3ccccc3nc1n2-c1ccc(C)cc1`, the IC50 in data set [8] is 8.78 µM (active).
For the compound `Cc1scc(C(=O)NN=C(S)NCC2CCCO2)c1C` (stereo not given), the AC50 result is “inconclusive” on Cytochrome P450 2D6, 11.2 µM (inconclusive) on Cytochrome P450 1A2, 6.31 µM (inconclusive) on Cytochrome P450 2C19 and “inconclusive” at Cytochrome P450 2C9 [11].
For the compound `C[C@H](NC(=O)c1[nH]cnc1C(=O)NCC(=O)OC(C)(C)C)c1ccccc1`, the AC50 with Escherichia coli [5] was 52.9 µM (active); with Escherichia coli [12], 46.2 µM (active).
Take `c1ccc(-c2ccc3sccc3n2)cc1`: the AC50 in the data set on HeLa was 79 µM (active).
Take `Cc1nonc1C(=O)NN=Cc1ccc([N+](=O)[O-])o1`: the IC50 in the data set on HEK293 was > 20 µM (inactive); in data set [1], 19.7 µM (active); in [2] it was 16.4 µM (active); at Tumor necrosis factor it was > 20 µM (inactive).
